Laboratory results: patent publication US11684614B2, “Formulations of hydroxypyridonate actinide/lanthanide decorporation agents” (priority 2017, dated 2023)

Legend:
[1] = 7-day oral gavage study in Sprague Dawley rats (SRI No. M801-10); assay type: in vivo
CYP2C9 = CYP2C9 (Homo sapiens, UniProt P11712); assay: CYP inhibition; assay type: in vitro ADME
[2] = Single oral dose GLP safety (toxicology) study in beagle dogs; assay type: in vivo
Experimental: The clinical formulation was tested in a single dose GLP toxicology and cardiovascular safety pharmacology study in beagle dogs.
Based on this study, the MTD in dogs after a single oral administration is considered to be greater than 150 mg/kg.

[3] = Prototype oral formulation preparation and physico-chemical characterization (Example 2); assay type: physicochemical; conditions: powder in bottle compositions
Experimental: Suitable formulation methodologies such as direct compression, dry compaction, and/or wet granulation processes were evaluated.
Powder in bottle (PIB) is one of the most convenient dosage form used in early stage clinical development because of its ease of use. In comparison with capsules, PIB can carry large dose and fill weights. […] The reason for evaluating each composition is also described. […] TABLE 2.14 describes the corresponding properties of the evaluated formulations.
TABLE 2.16 describes the corresponding properties of the evaluated formulations.
Chewable tablets are formulated for use in the mouth. They are usually uncoated, and are formulated to provide a release and absorption of the active ingredient(s) in the mouth/buccal cavity or from stomach. […] TABLE 2.18 describes the corresponding properties of the evaluated formulations.
Various compositions and processes (Direct compression & Wet granulation) were evaluated to formulate conventional tablets with 1000, 750 and/or 500 mg drug load. […]

Stability in plasma = assay type: in vitro ADME
CYP2D6 = CYP2D6 (Homo sapiens, UniProt P10635); assay: CYP inhibition; assay type: in vitro ADME
[4] = Radiolabeled in vivo ADME study in rats (with metabolite profiling); design: species or system Sprague Dawley rats
From the text: Formulated material was used in the single dose in vivo ADME characterization studies in Sprague Dawley rats and Swiss-Webster mice with 14C-labeled 3,4,3-L1(1,2-HOPO).
Pharmacokinetic parameters and disposition/biodistribution of 3,4,3-L1(1,2-HOPO) were characterized in vivo (with the aid of two 14C labels on the spermine backbone of the parent product) in two non-GLP studies using Swiss-Webster mice and Sprague Dawley rats. The study designs for these two studies are shown in TABLE 5.1 and TABLE 5.2, respectively. Groups of six mice (3 male, 3 female) were given a single dose of [14C]-3,4,3-L1(1,2-HOPO) via iv, ip, or po routes, respectively. An additional group of six mice (3 male, 3 female) were administered the 14C-labeled API with permeability enhancer (10% sodium oleate) by oral gavage (po). Similarly, groups of six rats (3 male, 3 female) were administered a single iv dose of the 14C-labeled API or a single po dose of the 14C-labeled API with 10% sodium oleate. In each of these studies, samples were collected at scheduled time points up to 24 hr post-dose and analyzed for 14C content using liquid scintillation counting. Blood, liver, kidney, feces and urine were collected and analyzed from the mice. Blood, brain, liver, kidney, lungs, spleen, skeletal muscle tissues, gastrointestinal (GI) tract samples, carcasses, feces, and urine were collected and analyzed from the rats.
The principal excretion routes of radioactivity from [14C]-3,4,3-L1(1,2-HOPO) were both the feces and urine after an iv dose based on high levels of radioactivity in both feces and urine as well as significant radioactivity in the excretory tissues, kidney, liver and GI tract. Fecal elimination by 24 hr post-dose accounted for approximately 62% and 16% of the iv administered dose in mice and rats, respectively. Urinary excretion accounted for approximately 12-23% of the iv administered dose in these rodents with renal excretion of 14C beginning as early as 5 min after iv injection in mice. In contrast, following oral administration, excretion was primarily by the fecal route accounting for approximately 89% and 41% of the orally administered dose in mice and rats, respectively, by 24 h post-dose. Urinary excretion accounted for <1% of the orally administered dose and low radioactivity levels were detected in systemic circulation and in tissues except for the GI tract. […] Based on the colonic transit time in rats of 15.5 hr, 11 the radioactivity found in the feces in the first 24 hr after po administration is most likely unabsorbed compound. […] Metabolite profiling of [14C]-3,4,3-L1(1,2-HOPO) was performed using an HPLC method on selected urine, feces, kidney, liver, and lung samples from the Sprague Dawley rat. Only samples containing the highest total radioactive levels were selected for analysis. A total of 11 peaks were detected, of which 6 were from uncharacterized interactions between the test article and matrix components because they were also seen in spiked blank matrix controls. These 6 peaks are not metabolites and are considered alternate forms of the parent compound (e.g. complexes of the test article with metallic ions). The 5 other radioactive species (peaks P1-P4 and P10) are considered potential metabolites. Feces-specific metabolite peaks P2, P3, and P10 represented a combined 10.5-11.4% and 0.5-4.2% of the administered dose after po or iv administration, respectively, in rats. Peak P10 was the most abundant peak in all samples analyzed. It represented up to 10% of the administered dose in feces after po administration while the other two feces-specific peaks represented <1% of the administered dose after po administration. Peak P10 was also the predominant, and sometimes the only, peak in feces samples after iv administration. […]

CYP3A4 = CYP3A4 (Homo sapiens, UniProt P08684); assay: CYP inhibition; assay type: in vitro ADME
[5] = Plasma protein binding, human; assay type: in vitro ADME; conditions: tested at 10 μg/ml
Experimental: (§1) Plasma protein binding differed across species; it was greatest in dog (95%), intermediate in human (29%), and lowest in rat (5%) when tested at 10 μg/ml.

[6] = In vitro human liver microsome stability; assay type: in vitro ADME
[7] = Plasma protein binding, dog; assay type: in vitro ADME; conditions: tested at 10 μg/ml
Experimental: as §1

[8] = Day 15, the one high-dose female with renal findings

Sequence of CYP3A4 (P08684 whole entry): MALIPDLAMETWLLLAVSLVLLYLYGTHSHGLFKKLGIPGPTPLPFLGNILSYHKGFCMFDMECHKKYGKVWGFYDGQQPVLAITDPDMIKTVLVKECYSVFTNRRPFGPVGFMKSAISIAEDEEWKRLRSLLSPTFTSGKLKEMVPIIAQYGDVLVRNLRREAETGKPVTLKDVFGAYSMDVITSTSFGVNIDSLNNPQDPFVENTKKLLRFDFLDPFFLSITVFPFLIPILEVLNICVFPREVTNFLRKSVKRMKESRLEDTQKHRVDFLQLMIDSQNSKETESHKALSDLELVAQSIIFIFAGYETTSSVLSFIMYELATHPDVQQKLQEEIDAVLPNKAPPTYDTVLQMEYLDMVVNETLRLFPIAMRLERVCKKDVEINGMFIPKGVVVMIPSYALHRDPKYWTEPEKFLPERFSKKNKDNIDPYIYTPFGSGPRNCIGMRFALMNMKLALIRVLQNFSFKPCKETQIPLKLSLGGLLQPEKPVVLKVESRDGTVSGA
Sequence of CYP2C9 (P11712 whole entry): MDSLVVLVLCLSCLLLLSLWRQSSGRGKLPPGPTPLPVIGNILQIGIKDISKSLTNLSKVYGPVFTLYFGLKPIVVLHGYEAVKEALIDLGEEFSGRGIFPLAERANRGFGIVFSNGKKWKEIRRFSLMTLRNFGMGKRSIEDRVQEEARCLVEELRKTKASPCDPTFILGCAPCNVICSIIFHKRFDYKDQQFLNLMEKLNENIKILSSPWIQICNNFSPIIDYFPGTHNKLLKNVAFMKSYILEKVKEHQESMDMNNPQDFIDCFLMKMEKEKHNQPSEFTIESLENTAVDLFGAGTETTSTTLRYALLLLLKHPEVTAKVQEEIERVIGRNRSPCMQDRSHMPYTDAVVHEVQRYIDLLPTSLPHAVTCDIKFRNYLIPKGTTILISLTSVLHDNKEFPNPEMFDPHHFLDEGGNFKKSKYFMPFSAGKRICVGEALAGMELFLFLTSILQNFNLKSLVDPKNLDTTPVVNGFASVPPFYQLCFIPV
Sequence of CYP2D6 (P10635 whole entry): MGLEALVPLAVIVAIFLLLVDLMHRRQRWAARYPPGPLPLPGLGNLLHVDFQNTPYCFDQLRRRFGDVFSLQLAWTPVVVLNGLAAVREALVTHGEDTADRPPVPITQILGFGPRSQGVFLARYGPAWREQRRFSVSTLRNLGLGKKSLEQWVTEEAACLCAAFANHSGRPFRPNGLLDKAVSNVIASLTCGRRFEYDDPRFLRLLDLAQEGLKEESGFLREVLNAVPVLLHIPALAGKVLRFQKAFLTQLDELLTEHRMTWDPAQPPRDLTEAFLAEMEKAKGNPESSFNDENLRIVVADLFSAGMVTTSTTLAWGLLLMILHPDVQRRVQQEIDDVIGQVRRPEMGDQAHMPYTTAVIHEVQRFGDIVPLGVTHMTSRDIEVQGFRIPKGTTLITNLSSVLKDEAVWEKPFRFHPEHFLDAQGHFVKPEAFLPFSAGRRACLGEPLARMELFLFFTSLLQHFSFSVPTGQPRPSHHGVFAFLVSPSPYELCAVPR

## O=C(NCCCN(CCCCN(CCCNC(=O)c1cccc(=O)n1O)C(=O)c1cccc(=O)n1O)C(=O)c1cccc(=O)n1O)c1cccc(=O)n1O [3,4,3-L1(1,2-HOPO)]
[1]; 7 days of oral gavage
  renal findings: no renal findings
[1]; oral gavage 400-1300 mg/kg (532-1732 μmol/kg) for 7 days
  soft stools or diarrhea: not observed
CYP2C9
  inhibition of CYP2C9 activity: did not inhibit
[2]; 3,4,3-L1(1,2-HOPO) treatment groups
  time of slight to moderate emesis post-dose: < 2 h
[2]; 37.5, 75, or 150 mg/kg
  changes in body weight, food consumption, ophthalmology, cardiovascular assessments, clinical pathology, urinalysis, gross necropsy observations, or organ weights: no meaningful changes
[2]; [8]
  increase in BUN relative to pre-test: 1.8 fold
  increase in CR relative to pre-test: 1.3 fold
[2]; Days 2 or 15, treated groups compared with controls
  serum iron, unsaturated iron binding capacity, total iron binding capacity, magnesium, and ferritin: none of these parameters were meaningfully altered
[2]; high dose group
  Post-dose emesis: 3 dogs out of 12 dogs per group
[2]; high-dose (150 mg/kg) males, Day 1
  Extreme diarrhea, incidence: 33%
[2]; high-dose group (150 mg/kg) females, Day 1
  Slight diarrhea, incidence: 33%
[2]; high-dose group (150 mg/kg) males, Day 1
  Slight diarrhea, incidence: 17%
[2]; high-dose group (150 mg/kg), Day 15 recovery sacrifice
  Renal findings (tubular casts and dilation, interstitial hemorrhage, hemosiderin pigmentation), incidence: 1 of 3
[2]; low dose group
  Post-dose emesis: 1 dogs out of 12 dogs per group
[2]; low-dose group (37.5 mg/kg)
  Diarrhea: absent
[2]; mid dose group
  Post-dose emesis: 2 dogs out of 12 dogs per group
[2]; mid-dose group (75 mg/kg) females, Day 1
  Slight diarrhea, incidence: 67%
[2]; single oral administration, dogs
  MTD: greater than 150 mg/kg
[3]
  behavior when reconstituted in water: formed a sticky mass
Stability in plasma
  stability in plasma: stable
CYP2D6
  inhibition of CYP2D6 activity: did not inhibit
[4]; female rats
  oral bioavailability (F) of radioactive compound: 1.1%
[4]; male rats
  oral bioavailability (F) of radioactive compound: 0.4%
[4]; oral administration, rats
  mean t½: ~60 min
[4]; oral dose, rodents (rats)
  Tmax: ~42 min
CYP3A4
  inhibition of CYP3A4 activity: did not inhibit
[5]
  Plasma protein binding: 29%
[6]
  stability in human liver microsomes: relatively stable
[7]
  Plasma protein binding: 95%
